The values below come from patent publication US20250304549A1, “HYDROXYAMIDE DERIVATIVE AND USE THEREOF” (SICHUAN HUIYU PHARMACEUTICAL CO., LTD., priority 2022, published 2025).

As a reminder, the IC50 is the concentration that gives 50% inhibition. High values mean lower potency, low ones higher potency.

Structures are written as SMILES. Structures can show the parent of a compound that is named as a salt.

One assay concerns the target LSD1 (Homo sapiens (Human), UniProt O60341). The assay can be described thus: In vitro enzyme inhibition assay - LSD1 (HTRF). Type of assay: biochemical. Here is the method: 1. In Vitro Enzyme Inhibition Assay—LSD1
Initially, a master solution of 90 μM test compound (dissolved in DMSO) was prepared and sequentially diluted with DMSO in a 5-fold concentration gradient to yield a total of 9 concentrations of the compound working solution 1 (90×). Subsequently these 9 concentrations of working solution 1 were sequentially diluted by a 30-fold concentration gradient, i.e., 2 μL of working solution 1 was aspirated and added to 58 μL of Buffer, mixed on a vortex mixer with sufficient shaking to yield 9 concentrations of the screening test compound working solution 2 (3×). […] The mixture was incubated at room temperature for 15 minutes. […] Afterward, 2 μL of a termination solution (containing 5.4 mM 2-PCPA) was added to each well, mixed evenly, and incubated for another 15 minutes. Finally 4 μL of a pre-mixed antibody solution of Eu-anti H3K4 (PerkinElmer, TRF0404-D) and allophycocyanin (Prozyme, PJ27S) (1:1) was added to each well, mixed evenly, and incubated for 60 minutes. […] The inhibition rate was calculated through the following formula: […]
(§1) Note: ‘Negative’ refers to the group without the inhibitor; ‘Blank’ refers to the group without the enzyme.
(§2) The IC50 value was calculated by fitting the inhibition rate by GraphPad Prism software, employing log (inhibitor) vs. response-Variable Slope (four parameters) model.
A general note: In TR-FRET formats the signal depends on donor and acceptor labels being close together.

Another assay relates to NCI-H69 cells. The assay is described as follows: In vitro cell inhibition assay - NCI-H69 cell proliferation (CellTiter-Glo). The conditions noted are these: Homo sapiens, NCI-H69, H69 small cell lung cancer cell proliferation. Type of assay: cell-based. Here is the method:
4. In Vitro Cell Inhibition Assay—NCI-H69 Cell Proliferation
The inhibitory effect of the compounds on cell proliferation was assessed by detecting the number of viable cells using the CellTiter-Glo® reagent. NCI-H69 cells in the logarithmic growth phase were collected and inoculated into transparent bottom 96-well plates at a density 1×10^3 cells per well with 100 μL medium, and incubated at 37° C., 5% CO2 overnight. The compounds were sequentially diluted in a 5-fold concentration gradient with DMSO to obtain 8 different concentrations These were then diluted with RPMI-640 (containing 20% FBS) cell culture medium to obtain the compounds working solution (2×), which was added to the cell supernatant at 100 μL per well. The incubation continued for 7 days at 37° C., 5% CO2. The plate was then removed and equilibrated to room temperature (25° C.) along with the CellTiter-Glo® mixing reagent for 10-30 minutes. After centrifugation at 1200 rpm for 5 minutes, 120 μL of the culture medium was carefully aspirated from each well, and 60 μL of CellTiter-Glo® reagent was added. The cells were thoroughly mixed with the CellTiter-Glo® mixing reagent using a microplate shaker for 2 min. and then incubated at room temperature for 10 min. The 96-well plate was subsequently placed on a multifunctional microplate reader to record the Luminescence values (RLU).
The inhibition rate was calculated using the following formula: […]
(§3) Note: ‘Negative’ refers to the group without inhibitors; ‘Blank’ refers to the group without cells.
(§4) The IC50 value was determined by fitting the inhibition rate by GraphPad Prism software.
(In general: In ATP-based viability assays light output follows the ATP content of the culture.)

The next assay has as its system NCI-H1417 cells. The assay can be described thus: In vitro cell inhibition assay - H1417 cell proliferation (CellTiter-Glo). Type of assay: cell-based. The conditions noted are these: Homo sapiens, NCI-H1417, H1417 small cell lung cancer cell proliferation. Here is the method:
3. In Vitro Cell Inhibition Assay—H1417 Cell Proliferation
The inhibitory effect of the compounds on cell proliferation was assessed by detecting the number of viable cells using the CellTiter-Glo® reagent. […] The compounds were sequentially diluted in a 5-fold concentration gradient with DMSO to obtain 8 different concentrations o. These were diluted with BEGM (containing 10% FBS) cell culture medium to obtain the compound working solution (2×), which was added to the cell supernatant at 100 μL per well. The incubation continued for 7 days at 37° C., 5% CO2. The plate was then removed and equilibrated to room temperature (25° C.) along with the CellTiter-Glo® mixing reagent for 10-30 minutes. After centrifugation, 100 μL of the culture medium was carefully aspirated from each well, and 85 μL of CellTiter-Glo® reagent was added. The cells were thoroughly mixed with the CellTiter-Glo® mixing reagent using a microplate shaker for 2 min. and then incubated at room temperature for 10 min. The 96-well plate was subsequently placed on a multifunctional microplate reader to record the Luminescence values (RLU). • The inhibition rate was calculated using the following formula: […]
as §3, §4

For another assay, the target named is pan-HDAC. The assay is described as follows: In vitro enzyme inhibition assay - HDAC (HDAC-Glo I/II), pan-HDAC. Type of assay: biochemical. Here is the method:
2. In Vitro Enzyme Inhibition Assay—HDAC
The effect of the compound on the enzymatic activity of pan-HDAC and two isoforms (HDAC1 and HDAC8) was examined using the HDAC-Glo I/II Assay and Screening System assay to assess the level of inhibition of HDAC protease activity and selectivity in each isoform. The proteins and detection reagents were from the HDAC-Glo™ I/II Assay and Screening System (Promega). A 1 mM stock solution of the compound was prepared in DMSO and diluted in a 5-fold gradient to create a series of 8 concentrations, and a specific volume of the highest concentration was diluted 25 times with HDAC Buffer to obtain 4× working solution of the compound. […] The 384-well plate was then read on a multifunctional microplate reader, with the Luminescence channel selected to record Luminescence values (RLU). The inhibition rate was calculated using the following formula: […]
as §1, §2

As for `COc1ccc(-c2c(OCCCCCCC(=O)NO)cc(N3C4CCC3CC(N)C4)nc2-c2ccc(C#N)c(F)c2)cc1O` (stereo not drawn) [Example 9, 7-((6-(3-Amino-8-azabicyclo[3.2.1]octan-8-yl)-2-(4-cyano-3-fluorophenyl)-3-(3-hydroxy-4-methoxyphenyl)pyridin-4-yl)oxy)-N-hydroxyheptanamide hydrochloride], the IC50 against LSD1 came to 1.82 nM; with NCI-H69 cells, 3100 nM; in the assay with NCI-H1417 cells, 915 nM; on pan-HDAC, 25.3 nM.
Taken in the same sequence, the figures for `COc1ccc(-c2c(OCCCCCCC(=O)NO)cc(N3CC4CC3CC4N)nc2-c2ccc(C#N)c(F)c2)cc1O` (stereo not drawn) [Example 15, 7-((6-(5-Amino-2-azabicyclo[2.2.1]heptan-2-yl)-2-(4-cyano-3-fluorophenyl)-3-(3-hydroxy-4-methoxyphenyl)pyridin-4-yl)oxy)-N-hydroxyheptanamide hydrochloride] were 1.45 nM, 2990 nM, 221 nM and 27.5 nM.
Taken in the same sequence, the figures for `N#Cc1ccc(-c2nc(N3CCC(N)CC3)cc(OCCCCCCC(=O)NO)c2-c2ccc(OCCO)cc2)cc1F` [Example 17, 7-((6-(4-Aminopiperidin-1-yl)-2-(4-cyano-3-fluorophenyl)-3-(4-(2-hydroxyethoxy)phenyl)pyridin-4-yl)oxy)-N-hydroxyheptanamide formate] were 23.8 nM, 3270 nM, more than 1000 nM and 21.6 nM.
Taken in the same sequence, the figures for `N#Cc1ccc(-c2nc(N3CC4CC3CC4N)n3ccnc3c2-c2ccc(OCCCCCCC(=O)NO)c(O)c2)cc1F` (stereo not drawn) [Example 22, 7-(4-(5-(5-(5-Amino-2-azabicyclo[2.2.1]heptan-2-yl)-7-(4-cyano-3-fluorophenyl)imidazo[1,2-c]pyrimidin-8-yl)-2-hydroxyphenoxy)-N-hydroxyheptanamide hydrochloride] were 0.31 nM, 4730 nM, 106 nM and 144 nM.
Turning to `COc1ccc(-c2c(-c3ccc(C#N)c(F)c3)nc(N3CCC(NCc4ccc(/C=C/C(=O)NO)cc4)CC3)n(C)c2=O)cc1O` [Example 67, (E)-3-(4-(((1-(4-(4-Cyano-3-fluorophenyl)-5-(3-hydroxy-4-methoxy-phenyl)-1-methyl-6-oxo-1,6-dihydro-pyrimidin-2-yl)piperidin-4-yl)amino)methyl)phenyl)-N-hydroxy-acrylamide formate], the IC50 was 1.89 nM at LSD1, 444 nM in the assay on NCI-H69 cells, 21.2 nM with NCI-H1417 cells and 39 nM against pan-HDAC.
Taken in the same sequence, the figures for `COc1ccc(-c2cnc(N3CCC(C)(NCc4ccc(/C=C/C(=O)NO)nc4)CC3)c(C#N)c2-c2ccc(C#N)c(F)c2)cc1O` [Example 213, (E)-3-(5-(((1-(3-Cyano-4-(4-cyano-3-fluorophenyl)-5-(3-hydroxy-4-methoxyphenyl)pyridin-2-yl)-4-methylpiperidin-4-yl)amino)methyl)pyridin-2-yl)-N-hydroxyacrylamide formate] were 2.12 nM, 76.1 nM, 7.32 nM and 19.7 nM.
Taken in the same sequence, the figures for `CC1(NCc2ccc(/C=C/C(=O)NO)cc2)CCN(c2ncc(-c3ccc(OC(F)(F)F)c(O)c3)c(-c3ccc(C#N)c(F)c3)c2C#N)CC1` [Example 214, (E)-3-(4-(((1-(3-Cyano-4-(4-cyano-3-fluorophenyl)-5-(3-hydroxy-4-(trifluoromethoxy)phenyl)pyridin-2-yl)-4-methylpiperidin-4-yl)amino)methyl)phenyl)-N-hydroxyacrylamide formate] were 4.98 nM, 496 nM, 7.9 nM and 143 nM.
Taken in the same sequence, the figures for `CC(C)(O)COc1ccc(-c2cnc(N3CCC(C)(NCc4ccc(/C=C/C(=O)NO)cc4)CC3)c(C#N)c2-c2ccc(C#N)c(F)c2)cc1O` [Example 215, (E)-3-(4-(((1-(3-Cyano-4-(4-cyano-3-fluorophenyl)-5-(3-hydroxy-4-(2-hydroxy-2-methylpropoxy)phenyl)pyridin-2-yl)-4-methylpiperidin-4-yl)amino)methyl)phenyl)-N-hydroxyacrylamide formate] were 0.39 nM, 295 nM, 2.65 nM and 68 nM.
As for `COc1ccc(-c2cnc(N3CCC(NCc4ccc(SCC(=O)NO)cc4)CC3)c(C#N)c2-c2ccc(C#N)c(F)c2)cc1O` [Example 216, 2-((4-((1-(3-cyano-4-(4-cyano-3-fluorophenyl)-5-(3-hydroxy-4-methoxyphenyl)pyridin-2-yl)piperidin-4-yl)amino)methyl)phenyl) thio)-N-hydroxyacetamide formate], the IC50 is 0.15 nM at LSD1, 51.6 nM with NCI-H69 cells, 6.06 nM with NCI-H1417 cells and 3.57 nM against pan-HDAC.
As for `COc1ccc(-c2cnc(N3CCC(NCc4ccc(CC(F)C(=O)NO)cc4)CC3)c(C#N)c2-c2ccc(C#N)c(F)c2)cc1O` (stereo not drawn) [Example 219, 3-(4-((1-(3-Cyano-4-(4-cyano-3-fluorophenyl)-5-(3-hydroxy-4-methoxyphenyl)pyridin-2-yl)piperidin-4-yl)amino)methyl) phenyl)-2-fluoro-N-hydroxypropanamide formate], the IC50 stood at 0.21 nM against LSD1, 149 nM with NCI-H69 cells, 7.13 nM with NCI-H1417 cells and 9.28 nM against pan-HDAC.
As to `COc1ccc(-c2cnc(N3CCC(NCc4ccc(/C=C(\C)C(=O)NO)nc4)CC3)c(C#N)c2-c2ccc(C#N)c(F)c2)cc1O` [Example 220, (E)-3-(5-(((1-(3-Cyano-4-(4-cyano-3-fluorophenyl)-5-(3-hydroxy-4-methoxyphenyl)pyridin-2-yl)piperidin-4-yl)amino)methyl)pyridin-2-yl)-N-hydroxy-2-methylacrylamide formate], the IC50 was determined as 0.42 nM at LSD1, 2290 nM in the assay with NCI-H69 cells, 6.86 nM with NCI-H1417 cells and 937 nM at pan-HDAC.
Taken in the same sequence, the figures for `COc1ccc(-c2cnc(N3CCC(NCc4ccc(CCC(=O)NO)cc4Cl)CC3)c(C#N)c2-c2ccc(C#N)c(F)c2)cc1O` [Example 222, 3-(3-chloro-4-((1-(3-cyano-4-(4-cyano-3-fluorophenyl)-5-(3-hydroxy-4-methoxyphenyl)pyridin-2-yl)piperidin-4-yl)amino)methyl) phenyl)-N-hydroxypropanamide formate] were 0.03 nM, 35.8 nM, 6.42 nM and 11.5 nM.
